According to article PMC10987480, “Biological and mutational analyses of CXCR4–antagonist interactions and design of new antagonistic analogs” (Bioscience Reports, 2023):
Positions of bridges follow the written chain, without caps; N, C: chain ends. Non-standard residues stand in square brackets, D forms with d. Chains are numbered I, II in the order given. No end group written: not given here.

Key:
CXCR4 [1] = target: CXCR4 (Homo sapiens, UniProt P61073); experiment: SDF-1α-induced calcium mobilization assay in SupT1 cells (Fluo-4); type: cell-based; parameters: host or cells: SupT1 cells; settings: 50 nM SDF-1α
Procedure: Figure 2 The inhibitory effect of the antagonists on SDF-1α-induced cell chemotaxis and calcium mobilization in SupT1 cells The antagonists and concentrations used were labeled in each lane. (A) The inhibition of cell migration by the noted antagonists. SupT1 cells pre-treated with or without CXCR4 antagonists were seeded in the upper well and cell migrated by 2 nM SDF-1α. Migrated cells without SDF-1α were used as a negative (0%) and migrated cell induced by SDF-1α as a positive control (100%). […] SupT1 cells were treated with or without CXCR4 antagonists and activated by 50 nM SDF-1α. To directly compare the inhibitory effect of the antagonists on calcium mobilization, the vehicle background and baseline were removed using GraphPad and Origin. The data were averages of at least three independent experiments.
SupT1 cells were collected and washed using HHBS buffer (Hanks’ Balanced Salt solution supplemented with 20 mM HEPES) and incubated with 1 mM probenecid (Energy Chemical, China) and 4 μM Fluo-4 (AAT bioquest, U.S.A.) for 37°C for 30 min with vortex every 5 min. After being washed with HHBS, cells were suspended in PBS at 2 × 10^6/ml and seeded 200 μl cells and various concentrations of compounds per well in 96-well plate. Following 50 nM SDF-1α was added to each well, the fluorescence intensity was measured (Ex/Em = 496/516 nm) using EnSpire® multimode plate reader (PerkinElmer, U.S.A.).

CXCR4 Y116A = target: T1, CXCR4 Y116A (Homo sapiens, UniProt P61073, Y116A); experiment: Competitive binding to CXCR4 mutant Y116A (12G5, CHO cells); settings: TM3, class of reduction vs wild-type CXCR4, 12G5 competition, averages of at least three independent experiments
T1 construct: expressed in transfected cells
Procedure: (§1) Plasmid pcDNA3-CXCR4 and mutated pcDNA3-CXCR4 were extracted and transfected into CHO cells using Lipofectamine 2000 according to the manufacturer’s guidelines. The selective medium containing G418 at a concentration of 1.2 mg/ml was applied to isolate stably transfected cells. CHO cells expressing wild-type CXCR4 and mutant CXCR4 were obtained using fluorescence-activated cell sorting (FACS).
(§2) All of the CXCR4 mutants were prepared using PCR technology. Briefly, pairs of asymmetrical primers containing the desired amino acid mutations (Supplementary Tables S1 and S2), each complementary to opposite strands of the pcDNA3–CXCR4, were designed for amplification by Q5® High-Fidelity DNA polymerase and the generation of mutated constructs. The methylated pcDNA3–CXCR4 templates were digested by DpnI. The mutated pcDNA3–CXCR4 was transformed into competent E. coli TOP10 for long-term storage and amplification.
(§3) The procedure for the CXCR4 competitive binding experiments was published previously. Briefly, CXCR4 antibody 12G5 (250 ng/ml) was incubated with 5 × 10^5 cells and varying concentrations of unlabeled compounds in a final volume of 100 μl of assay buffer (PBS with 0.5% BSA and 0.05% NaN3) in 96-well plates for 40 min on ice, after being washed with assay buffer once. The cells were incubated with FITC-conjugated second antibody IgG for 30 min on ice, then washed with assay buffer three times. The fluorescence intensity was measured for excitation at 485 nm and emission at 535 nm using multimode plate reader (PerkinElmer). The IC50 values were calculated using graphpad Prism 7. Experiments were performed at least three times.

CXCR4 Y45A = target: T2, CXCR4 Y45A (Homo sapiens, UniProt P61073, Y45A); experiment: Competitive binding to CXCR4 mutant Y45A (12G5, CHO cells); settings: TM1, class of reduction vs wild-type CXCR4, 12G5 competition, averages of at least three independent experiments
T2 construct: expressed in transfected cells
Procedure: as §1, §2, §3

CXCR4 E288Q = target: T3, CXCR4 E288Q (Homo sapiens, UniProt P61073, E288Q); experiment: Competitive binding to CXCR4 mutant E288Q (12G5, CHO cells); settings: TM7, class of reduction vs wild-type CXCR4, 12G5 competition, averages of at least three independent experiments
T3 construct: expressed in transfected cells
Procedure: as §1, §2, §3

CXCR4 E288D = target: T4, CXCR4 E288D (Homo sapiens, UniProt P61073, E288D); experiment: Competitive binding to CXCR4 mutant E288D (12G5, CHO cells); settings: TM7, class of reduction vs wild-type CXCR4, 12G5 competition, averages of at least three independent experiments
T4 construct: expressed in transfected cells
Procedure: as §1, §2, §3

CXCR4 H113A = target: T5, CXCR4 H113A (Homo sapiens, UniProt P61073, H113A); experiment: Competitive binding to CXCR4 mutant H113A (12G5, CHO cells); settings: TM3, class of reduction vs wild-type CXCR4, 12G5 competition, averages of at least three independent experiments
T5 construct: expressed in transfected cells
Procedure: as §1, §2, §3

CXCR4 Q200A = target: T6, CXCR4 Q200A (Homo sapiens, UniProt P61073, Q200A); experiment: Competitive binding to CXCR4 mutant Q200A (12G5, CHO cells); parameters: key to the marks not given beside the values; settings: TM5, class of reduction vs wild-type CXCR4, 12G5 competition, averages of at least three independent experiments
T6 construct: expressed in transfected cells
Procedure: as §1, §2, §3

CXCR4 F87A = target: T7, CXCR4 F87A (Homo sapiens, UniProt P61073, F87A); experiment: Competitive binding to CXCR4 mutant F87A (12G5, CHO cells); settings: TM2, class of reduction vs wild-type CXCR4, 12G5 competition, averages of at least three independent experiments
T7 construct: expressed in transfected cells
Procedure: as §1, §2, §3

CXCR4 W161A = target: T8, CXCR4 W161A (Homo sapiens, UniProt P61073, W161A); experiment: Competitive binding to CXCR4 mutant W161A (12G5, CHO cells); settings: TM4, class of reduction vs wild-type CXCR4, 12G5 competition, averages of at least three independent experiments
T8 construct: expressed in transfected cells
Procedure: as §1, §2, §3

CXCR4 I259A = target: T9, CXCR4 I259A (Homo sapiens, UniProt P61073, I259A); experiment: Competitive binding to CXCR4 mutant I259A (12G5, CHO cells); parameters: key to the marks not given beside the values; settings: TM6, class of reduction vs wild-type CXCR4, 12G5 competition, averages of at least three independent experiments
T9 construct: expressed in transfected cells
Procedure: as §1, §2, §3

CXCR4 D171A = target: T10, CXCR4 D171A (Homo sapiens, UniProt P61073, D171A); experiment: Competitive binding to CXCR4 mutant D171A (12G5, CHO cells); settings: TM4, class of reduction vs wild-type CXCR4, 12G5 competition, averages of at least three independent experiments
T10 construct: expressed in transfected cells
Procedure: as §1, §2, §3

CXCR4 I284A = target: T11, CXCR4 I284A (Homo sapiens, UniProt P61073, I284A); experiment: Competitive binding to CXCR4 mutant I284A (12G5, CHO cells); settings: TM7, class of reduction vs wild-type CXCR4, 12G5 competition, averages of at least three independent experiments
T11 construct: expressed in transfected cells
Procedure: as §1, §2, §3

CXCR4 R30A = target: T12, CXCR4 R30A (Homo sapiens, UniProt P61073, R30A); experiment: Competitive binding to CXCR4 mutant R30A (12G5, CHO cells); parameters: key to the marks not given beside the values; settings: TM1, class of reduction vs wild-type CXCR4, 12G5 competition, averages of at least three independent experiments
T12 construct: expressed in transfected cells
Procedure: as §1, §2, §3

CXCR4 T117A = target: T13, CXCR4 T117A (Homo sapiens, UniProt P61073, T117A); experiment: Competitive binding to CXCR4 mutant T117A (12G5, CHO cells); settings: TM3, class of reduction vs wild-type CXCR4, 12G5 competition, averages of at least three independent experiments
T13 construct: expressed in transfected cells
Procedure: as §1, §2, §3

CXCR4 V112A = target: T14, CXCR4 V112A (Homo sapiens, UniProt P61073, V112A); experiment: Competitive binding to CXCR4 mutant V112A (12G5, CHO cells); settings: TM3, class of reduction vs wild-type CXCR4, 12G5 competition, averages of at least three independent experiments
T14 construct: expressed in transfected cells
Procedure: as §1, §2, §3

CXCR4 [2] = settings: read-out: IC50; cited from earlier work
From the text: To understand the receptor–ligand recognition mechanism involving CXCR4 and its antagonists, here in this study we conducted a series of comparative analyses of the biological activities and CXCR4 binding sites of eleven known CXCR4 antagonists, including the three mentioned above, using cell-based bioassays, CXCR4 site-directed mutagenesis and computer-aided molecular modeling. These antagonists studied here were chosen from different representative structural types including both D-peptides (i.e., HC4319, DV1, DV1 dimer, and DV3) and a representative counterpart L-peptide (i.e., V1) derived ...

T2 sequence (P61073 whole entry Y45A): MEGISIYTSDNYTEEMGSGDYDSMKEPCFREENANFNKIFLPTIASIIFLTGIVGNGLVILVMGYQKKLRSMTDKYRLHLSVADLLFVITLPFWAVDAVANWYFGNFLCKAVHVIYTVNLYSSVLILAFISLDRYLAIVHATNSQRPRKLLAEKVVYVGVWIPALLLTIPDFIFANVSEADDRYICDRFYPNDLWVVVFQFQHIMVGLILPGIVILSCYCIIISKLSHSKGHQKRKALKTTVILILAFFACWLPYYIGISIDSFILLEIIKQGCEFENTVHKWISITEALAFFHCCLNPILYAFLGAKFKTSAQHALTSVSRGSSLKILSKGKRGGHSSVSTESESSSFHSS
CXCR4 (Homo sapiens, UniProt P61073), sequence (P61073 whole entry): as the sequence (P61073 whole entry Y45A) above, with A45Y counted along it
T3 sequence (P61073 whole entry E288Q): as the sequence (P61073 whole entry Y45A) above, with A45Y, E288Q counted along it
T6 sequence (P61073 whole entry Q200A): as the sequence (P61073 whole entry Y45A) above, with A45Y, Q200A counted along it
T4 sequence (P61073 whole entry E288D): as the sequence (P61073 whole entry Y45A) above, with A45Y, E288D counted along it
T8 sequence (P61073 whole entry W161A): as the sequence (P61073 whole entry Y45A) above, with A45Y, W161A counted along it
T11 sequence (P61073 whole entry I284A): as the sequence (P61073 whole entry Y45A) above, with A45Y, I284A counted along it
T10 sequence (P61073 whole entry D171A): as the sequence (P61073 whole entry Y45A) above, with A45Y, D171A counted along it
T12 sequence (P61073 whole entry R30A): as the sequence (P61073 whole entry Y45A) above, with R30A, A45Y counted along it
T5 sequence (P61073 whole entry H113A): as the sequence (P61073 whole entry Y45A) above, with A45Y, H113A counted along it
T7 sequence (P61073 whole entry F87A): as the sequence (P61073 whole entry Y45A) above, with A45Y, F87A counted along it
T14 sequence (P61073 whole entry V112A): as the sequence (P61073 whole entry Y45A) above, with A45Y, V112A counted along it
T9 sequence (P61073 whole entry I259A): as the sequence (P61073 whole entry Y45A) above, with A45Y, I259A counted along it
T1 sequence (P61073 whole entry Y116A): as the sequence (P61073 whole entry Y45A) above, with A45Y, Y116A counted along it
T13 sequence (P61073 whole entry T117A): as the sequence (P61073 whole entry Y45A) above, with A45Y, T117A counted along it

Row | Substance | inhibition at 1 µM (CXCR4 [1]; SUP-T1, at 1 μM) [%] | Competitive receptor binding activity, CXCR4 Y116A (CXCR4 Y116A) | Competitive receptor binding activity, CXCR4 Y45A (CXCR4 Y45A) | Competitive receptor binding activity, CXCR4 E288Q (CXCR4 E288Q) | Competitive receptor binding activity, CXCR4 E288D (CXCR4 E288D) | Competitive receptor binding activity, CXCR4 H113A (CXCR4 H113A) | Competitive receptor binding activity, CXCR4 Q200A (CXCR4 Q200A) | Competitive receptor binding activity, CXCR4 F87A (CXCR4 F87A) | Competitive receptor binding activity, CXCR4 W161A (CXCR4 W161A) | Competitive receptor binding activity, CXCR4 I259A (CXCR4 I259A) | Competitive receptor binding activity, CXCR4 D171A (CXCR4 D171A) | Competitive receptor binding activity, CXCR4 I284A (CXCR4 I284A) | Competitive receptor binding activity, CXCR4 R30A (CXCR4 R30A) | Competitive receptor binding activity, CXCR4 T117A (CXCR4 T117A) | Competitive receptor binding activity, CXCR4 V112A (CXCR4 V112A) | Inhibition of the calcium signal (CXCR4 [1]; at 50 nM) [%] | IC50 (CXCR4 [2]) [nM]
1 | I: [dL]G[dA][dS][dW][dH][dR][dP][dD][dK][dC][dC][dL]G[dY][dQ][dK][dR][dP][dL][dP] / II: [dL]G[dA][dS][dW][dH][dR][dP][dD][dK][dC][dC][dL]G[dY][dQ][dK][dR][dP][dL][dP] (disulfide I:11-II:11, I:12-II:12) [DV1 dimer] | 75 | + (30–60% reduction compared with wild-type CXCR4) | ++ (10–29% reduction compared with wild-type CXCR4) | + (30–60% reduction compared with wild-type CXCR4) | ++ (10–29% reduction compared with wild-type CXCR4) | + (30–60% reduction compared with wild-type CXCR4) | +++ | + (30–60% reduction compared with wild-type CXCR4) | +++ | +++ | ++ (10–29% reduction compared with wild-type CXCR4) | +++ | +++ | ++ (10–29% reduction compared with wild-type CXCR4) | +++ | – | –
2 | LGASWHRPDKCCLGYQKRPLPQVLLSSWYPTSQLCSKPGVIFLTKRGRQVCADKSKDWVKKLMQQLPVTAR [vMIP-II, viral macrophage-inflammatory protein-II, full-length natural chemokine antagonist produced by human herpesvirus-8; recombinant from Peprotech] | – | ++ (10–29% reduction compared with wild-type CXCR4) | +++ | ++ (10–29% reduction compared with wild-type CXCR4) | +++ | +++ | +++ | + (30–60% reduction compared with wild-type CXCR4) | +++ | +++ | +++ | +++ | +++ | +++ | +++ | 64 | 5.8
